In patent US7138543B2, “Thiolalkyl benzoic acid derivatives” (Guilford Pharmaceuticals Inc., priority 2001, dated 2006):

Columns and labels:
TGF-β2 = assay: Effect on TGF-β2 in in vitro ischemia model; format: cell-based; conditions: ischemic cell cultures, FIG. 2
Description: (§1) Effect of NAALADase Inhibition on TGF-β in In vitro Ischemia Model Compound C was added to ischemia cell cultures to determine its effect on TGF-β levels during stroke.

TGF-β1 [1] = assay: TGF-β1 levels by microdialysis in MCAO rats; format: in vivo; conditions: during occlusion and reperfusion, FIG. 6
[2] = test system: rats subjected to middle cerebral artery occlusion; assay: Neuroprotective effect with TGF-β neutralizing antibodies in MCAO rats; format: in vivo; conditions: FIG. 5
Description: The effect of TGF-β neutralizing antibodies on the neuroprotective effect of Compound C was also studied in rats following MCAO.
One of ordinary skill in the art can appreciate that the regulation of TGF-β's by NAALADase inhibitors may have implications not only in stroke, but also in other diseases, disorders and conditions including, without limitation, neurological diseases, psychiatric diseases, demyelinating diseases, prostate cancer, inflammation, diabetes and angiogenesis.

[3] = test system: chronic constrictive injury-induced rats; assay: Neuropathic pain in CCI model (sciatic nerve ligation); format: in vivo
Description: In vivo Assay of NAALADase Inhibitors on Neuropathic Pain in CCI Model
Sciatic nerve ligation, consisting of 4 ligatures tied loosely around the sciatic nerve at 1 mm intervals proximal to the nerve trifurcation, was performed on rats. […] The rats were habituated to a Hargreaves apparatus. An infrared heat source was directed onto the dorsal surface of each rat's hindpaws and the time taken for the rat to withdraw its paws was noted. The difference in scores between the latency of the response for the paw on the operated side versus the paw on the unoperated control side was determined.

TGF-β1 [4] = assay: Effect on TGF-β1 in in vitro ischemia model; format: cell-based; conditions: ischemic cell cultures, FIG. 1
Description: as §1

ischemic cell cultures = assay: Neuroprotective effect with growth factor neutralizing antibodies in in vitro ischemia model; format: cell-based
Description: TGF-β neutralizing antibodies were then added to the ischemic cell cultures.

With `O=C(O)CCC(CP(=O)(O)O)C(=O)O` (centres unmarked) [Compound C, 2-(phosphonomethyl)pentanedioic acid] as the molecule, how does the TGF-β2 concentration (TGF-β2) read?
The TGF-β2 concentration was “increased concentration”.

And the TGF-β1 levels (TGF-β1 [1])?
Its TGF-β1 levels is “significant rise in TGF-β1 levels”.

And the “neuroprotective effect in presence of TGF-β neutralizing antibodies” value [2]?
Its value is “significantly attenuated the neuroprotective effect”.

What about the “withdrawal latency difference scores between operated and unoperated paws” value ([3]; 50 mg/kg i.p. daily starting 10 days post surgery, FIG. 8) of the same molecule?
The value was “dramatically normalized the difference scores”.

What about the “start of significant effect on difference scores” value ([3]; 50 mg/kg i.p. daily, persisted to end of study (21 days of daily dosing)) of the same molecule?
The value was 11 days of drug treatment.

What about the TGF-β1 concentration (TGF-β1 [4]) of the same molecule?
Its TGF-β1 concentration is “increased concentration”.

What about the “neuroprotective effect in presence of TGF-β neutralizing antibodies” value (ischemic cell cultures; FIG. 3) of the same molecule?
Its value is “blocked the neuroprotective effect”.

What about the “neuroprotective effect in presence of FGF antibody” value (ischemic cell cultures; FIG. 4) of the same molecule?
Its value is “did not block the neuroprotective effect”.
